# Patent US20250145665A1, “MACROCYCLIC PEPTIDES USEFUL AS MODULATORS OF TNF ALPHA” (Bristol-Myers Squibb Company, priority 2023, published 2025)
# Starred links: 1 amine or outer side, 2 acyl side, 3 side chain; linkers in the order of their positions; H or OH if unused. Positions of bridges follow the written chain, without caps; N, C: chain ends. Non-standard residues stand in square brackets, D forms with d. Residues, ends and D or L forms follow the SMILES beside them. ξ: configuration not given here. *: point of attachment. X56 = O=C(O)COc1cccc(NC(=O)c2ccc(-c3ccc(C[C@H](N[*:1])C(=O)[*:2])cc3)cc2)c1; Bip(4'-NH) = O=C([C@H](Cc1ccc(-c2ccc(N[*:3])cc2)cc1)N[*:1])[*:2]; X45 = CS(=O)(=O)Nc1ccc(CNC(=N)NCCC[C@@H](N[*:1])C(=O)[*:2])cc1; Bip(4'-CONHMe) = CNC(=O)c1ccc(-c2ccc(C[C@H](N)C(=O)O)cc2)cc1; dArg(ω-Bn(3-CH2OH)) = N=C(NCCC[C@@H](N)C(=O)O)NCc1cccc(CO)c1; Indazole3carbonyl(1-CH2COOH) = O=C(O)Cn1nc(C(=O)*)c2ccccc21; Bip(4'-COOH) = N[C@@H](Cc1ccc(-c2ccc(C(=O)O)cc2)cc1)C(=O)O; X29 = N=C(NCCC[C@@H](N[*:1])C(=O)[*:2])NCCc1ccc(F)c(F)c1; Trp(1-CH2COOH) = N[C@@H](Cc1cn(CC(=O)O)c2ccccc12)C(=O)O; X30 = N#Cc1ccc(CCNC(=N)NCCC[C@@H](N[*:1])C(=O)[*:2])cc1; X8 = N=C(NCCC[C@@H](N[*:1])C(=O)[*:2])NCCc1ccc(CN)cc1; Ala(imidazol-2-yl) = N[C@@H](Cc1ncc[nH]1)C(=O)O; Ala(morpholin-4-yl) = N[C@@H](CN1CCOCC1)C(=O)O; Benzoyl(3-OCH2COOH) = O=C(O)COc1cccc(C(=O)*)c1; Bip = N[C@@H](Cc1ccc(-c2ccccc2)cc1)C(=O)O; X81 = N[C@@H](Cc1ccc(OCC(=O)O)cc1)C(=O)*; Cha = N[C@@H](CC1CCCCC1)C(=O)O; Tle = CC(C)(C)[C@H](N)C(=O)O; ξP = O=C(O)C1CCCN1; Sar = CNCC(=O)O
# Target: TNFα (Homo sapiens, UniProt P01375)
# Sequence (P01375 77-233 limits assumed): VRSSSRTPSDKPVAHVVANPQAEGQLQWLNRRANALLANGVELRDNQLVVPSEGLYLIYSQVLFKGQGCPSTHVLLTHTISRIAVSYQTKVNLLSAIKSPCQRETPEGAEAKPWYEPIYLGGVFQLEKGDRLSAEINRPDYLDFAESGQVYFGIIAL
# Assay: TNF-Induced HEK-Blue Assay
# Assay type: cell-based
# Details: not given
row,Structure (SMILES),IC50 [nM]
1,CC(C)C[C@@H]1NC(=O)[C@H](CCCNC(=N)N)NC(=O)[C@H](C(C)C)NC(=O)[C@@H]2CCCN2C(=O)[C@H](C(C)C)NC(=O)[C@@H](CCCNC(=N)NCCc2ccc(F)c(F)c2)NC(=O)[C@H](CC(=O)O)NC(=O)[C@@H]2CCCN2C(=O)CN(C)C(=O)[C@H](Cc2ccc(-c3ccc(NC(=O)c4nn(CC(=O)O)c5ccccc45)cc3)cc2)NC(=O)[C@H](Cc2ccc(-c3ccccc3)cc2)NC(=O)[C@H](CN2CCOCC2)NC(=O)CSC[C@@H](C(=O)NCC(N)=O)NC1=O [Example 423] ({CH2CO}-[Ala(morpholin-4-yl)][Bip][Bip(4'-NH)](Indazole3carbonyl(1-CH2COOH))[Sar]PD[X29]VPVRLCG-NH2; thioether N-13),< 50
2,CNC(=O)c1ccc(-c2ccc(C[C@@H]3NC(=O)[C@H](CN4CCOCC4)NC(=O)CSC[C@@H](C(=O)NCC(N)=O)NC(=O)[C@H](CC(C)C)NC(=O)[C@H](CCCNC(=N)N)NC(=O)[C@H](C(C)C)NC(=O)[C@@H]4CCCN4C(=O)[C@H](C(C)C)NC(=O)[C@@H](CCCNC(=N)NCCc4ccc(F)c(F)c4)NC(=O)[C@H](CC(=O)O)NC(=O)[C@@H]4CCCN4C(=O)CN(C)C(=O)[C@H](Cc4ccc(-c5ccc(NC(=O)c6nn(CC(=O)O)c7ccccc67)cc5)cc4)NC3=O)cc2)cc1 [Example 424] ({CH2CO}-[Ala(morpholin-4-yl)][Bip(4'-CONHMe)][Bip(4'-NH)](Indazole3carbonyl(1-CH2COOH))[Sar]PD[X29]VPVRLCG-NH2; thioether N-13),50 to 200
3,CC(C)C[C@@H]1NC(=O)[C@H](CCCNC(=N)N)NC(=O)[C@H](C(C)C)NC(=O)[C@@H]2CCCN2C(=O)[C@H](C(C)C)NC(=O)[C@@H](CCCNC(=N)NCc2cccc(CO)c2)NC(=O)[C@H](CC(=O)O)NC(=O)[C@@H]2CCCN2C(=O)CN(C)C(=O)[C@H](Cc2ccc(-c3ccc(NC(=O)c4nn(CC(=O)O)c5ccccc45)cc3)cc2)NC(=O)[C@H](Cc2ccc(-c3ccccc3)cc2)NC(=O)[C@H](CN2CCOCC2)NC(=O)CSC[C@@H](C(=O)NCC(N)=O)NC1=O [Example 425] ({CH2CO}-[Ala(morpholin-4-yl)][Bip][Bip(4'-NH)](Indazole3carbonyl(1-CH2COOH))[Sar]PD[dArg(ω-Bn(3-CH2OH))]VPVRLCG-NH2; thioether N-13),< 50
4,CNC(=O)c1ccc(-c2ccc(C[C@@H]3NC(=O)[C@H](CN4CCOCC4)NC(=O)CSC[C@@H](C(=O)NCC(N)=O)NC(=O)[C@H](CC(C)C)NC(=O)[C@H](CCCNC(=N)N)NC(=O)[C@H](C(C)C)NC(=O)[C@@H]4CCCN4C(=O)[C@H](C(C)C)NC(=O)[C@@H](CCCNC(=N)NCc4cccc(CO)c4)NC(=O)[C@H](CC(=O)O)NC(=O)[C@@H]4CCCN4C(=O)CN(C)C(=O)[C@H](Cc4ccc(-c5ccc(NC(=O)c6nn(CC(=O)O)c7ccccc67)cc5)cc4)NC3=O)cc2)cc1 [Example 426] ({CH2CO}-[Ala(morpholin-4-yl)][Bip(4'-CONHMe)][Bip(4'-NH)](Indazole3carbonyl(1-CH2COOH))[Sar]PD[dArg(ω-Bn(3-CH2OH))]VPVRLCG-NH2; thioether N-13),< 50
5,CC(C)C[C@@H]1NC(=O)[C@H](CCCNC(=N)N)NC(=O)[C@H](C(C)C)NC(=O)[C@@H]2CCCN2C(=O)[C@H](C(C)C)NC(=O)[C@@H](CCCNC(=N)NCc2ccc(NS(C)(=O)=O)cc2)NC(=O)[C@H](CC(=O)O)NC(=O)[C@@H]2CCCN2C(=O)CN(C)C(=O)[C@H](Cc2ccc(-c3ccc(NC(=O)c4nn(CC(=O)O)c5ccccc45)cc3)cc2)NC(=O)[C@H](Cc2ccc(-c3ccccc3)cc2)NC(=O)[C@H](CN2CCOCC2)NC(=O)CSC[C@@H](C(=O)NCC(N)=O)NC1=O [Example 427] ({CH2CO}-[Ala(morpholin-4-yl)][Bip][Bip(4'-NH)](Indazole3carbonyl(1-CH2COOH))[Sar]PD[X45]VPVRLCG-NH2; thioether N-13),50 to 200
6,CC(C)C[C@@H]1NC(=O)[C@H](CCCNC(=N)N)NC(=O)[C@H](C(C)C)NC(=O)[C@@H]2CCCN2C(=O)[C@H](C(C)C)NC(=O)[C@@H](CCCNC(=N)NCCc2ccc(C#N)cc2)NC(=O)[C@H](CC(=O)O)NC(=O)[C@@H]2CCCN2C(=O)CN(C)C(=O)[C@H](Cc2ccc(-c3ccc(NC(=O)c4nn(CC(=O)O)c5ccccc45)cc3)cc2)NC(=O)[C@H](Cc2ccc(-c3ccccc3)cc2)NC(=O)[C@H](CN2CCOCC2)NC(=O)CSC[C@@H](C(=O)NCC(N)=O)NC1=O [Example 428] ({CH2CO}-[Ala(morpholin-4-yl)][Bip][Bip(4'-NH)](Indazole3carbonyl(1-CH2COOH))[Sar]PD[X30]VPVRLCG-NH2; thioether N-13),50 to 200
7,CC(C)C[C@@H]1NC(=O)[C@H](CCCNC(=N)N)NC(=O)[C@H](C(C)C)NC(=O)[C@@H]2CCCN2C(=O)[C@H](C(C)C)NC(=O)[C@@H](CCCNC(=N)NCCc2ccc(CN)cc2)NC(=O)[C@H](CC(=O)O)NC(=O)[C@@H]2CCCN2C(=O)CN(C)C(=O)[C@H](Cc2ccc(-c3ccc(NC(=O)c4nn(CC(=O)O)c5ccccc45)cc3)cc2)NC(=O)[C@H](Cc2ccc(-c3ccccc3)cc2)NC(=O)[C@H](CN2CCOCC2)NC(=O)CSC[C@@H](C(=O)NCC(N)=O)NC1=O [Example 429] ({CH2CO}-[Ala(morpholin-4-yl)][Bip][Bip(4'-NH)](Indazole3carbonyl(1-CH2COOH))[Sar]PD[X8]VPVRLCG-NH2; thioether N-13),200 to 2000

# Same assay, conditions: HEK-Blue-CD40L cells, NF-kB-driven secreted alkaline phosphatase reporter; TNFα 0.5 ng/ml; 18 h; read-out: TNF induced HEK-Blue assay IC50 value
row,IC50 [nM],Structure (SMILES)
1,50 to 200,CC[C@H](C)[C@@H]1NC(=O)[C@@H](CCCNC(=N)N)NC(=O)[C@H](CC(=O)O)NC(=O)[C@H](Cc2cnc[nH]2)NC(=O)CN(C)C(=O)[C@H](Cc2ccc(-c3ccc(NC(=O)[C@@H](N)Cc4cn(CC(=O)O)c5ccccc45)cc3)cc2)NC(=O)[C@H](Cc2ccc(-c3ccccc3)cc2)NC(=O)[C@H](CC2CCCCC2)NC(=O)CSC[C@@H](C(=O)NCC(N)=O)NC(=O)[C@H](CC(C)C)NC(=O)[C@H](Cc2ncc[nH]2)NC(=O)[C@H](C(C)C)NC(=O)C2CCCN2C1=O (stereo partly shown) [Example 420] ({CH2CO}-[Cha][Bip][Bip(4'-NH)](Trp(1-CH2COOH))[Sar]HD[dR]I[ξP]V[Ala(imidazol-2-yl)]LCG-NH2; thioether N-13)
2,50 to 200,CC[C@H](C)[C@@H]1NC(=O)C2CCCN2C(=O)[C@H]([C@@H](C)CC)NC(=O)[C@@H](CCCNC(=N)N)NC(=O)[C@H](CC(=O)O)NC(=O)[C@H](Cc2ccccc2)NC(=O)CN(C)C(=O)[C@H](Cc2ccc(-c3ccc(NC(=O)[C@@H](N)Cc4ccc(OCC(=O)O)cc4)cc3)cc2)NC(=O)[C@H](Cc2ccc(-c3ccc(C(=O)O)cc3)cc2)NC(=O)[C@H](C(C)(C)C)NC(=O)CSC[C@@H](C(=O)NCC(N)=O)NC(=O)[C@H](CC(C)C)NC(=O)[C@H](Cc2ncc[nH]2)NC1=O (stereo partly shown) [Example 421] ({CH2CO}-[Tle][Bip(4'-COOH)][Bip(4'-NH)](X81)[Sar]FD[dR]I[ξP]I[Ala(imidazol-2-yl)]LCG-NH2; thioether N-13)
3,< 50,CC[C@H](C)[C@@H]1NC(=O)[C@@H](CCCNC(=N)N)NC(=O)[C@H](CC(=O)O)NC(=O)[C@H](Cc2cnc[nH]2)NC(=O)CN(C)C(=O)[C@H](Cc2ccc(-c3ccc(NC(=O)c4cccc(OCC(=O)O)c4)cc3)cc2)NC(=O)[C@H](Cc2ccc(-c3ccc(C(=O)Nc4cccc(OCC(=O)O)c4)cc3)cc2)NC(=O)[C@H](CC2CCCCC2)NC(=O)CSC[C@@H](C(=O)NCC(N)=O)NC(=O)[C@H](CC(C)C)NC(=O)[C@H](Cc2ncc[nH]2)NC(=O)[C@H](C(C)C)NC(=O)C2CCCN2C1=O (stereo partly shown) [Example 422] ({CH2CO}-[Cha][X56][Bip(4'-NH)](Benzoyl(3-OCH2COOH))[Sar]HD[dR]I[ξP]V[Ala(imidazol-2-yl)]LCG-NH2; thioether N-13)
